Reference: PMC10629583, “Specific inhibition of an anticancer target, polo-like kinase 1, by allosterically dismantling its mechanism of substrate recognition” (Proceedings of the National Academy of Sciences of the …, 2023)
Entries after “also recorded” stand apart in the source; their conditions may differ.

What was measured:
[1] = target: 5-HT2A (Homo sapiens, UniProt P28223); assay: PDSP off-target binding screen; conditions: for inhibition at 10 µM: read-out: Primary screen AVE(%inhib)±SD
[2] = target: Beta1 (Homo sapiens, UniProt P08588); assay: PDSP off-target binding screen; conditions: for inhibition at 10 µM: read-out: Primary screen AVE(%inhib)±SD; for Ki: read-out: Secondary screen Ki
Description: (§1) PDSP no. Compound Interactions (Ki, µM)
(§2) 60477 Allopole-A None observed.
(§3) trigger a secondary screen at that receptor.

[3] = target: T1, M2 (Homo sapiens, UniProt P08172); assay: PDSP off-target binding screen; conditions: for inhibition at 10 µM: read-out: Primary screen AVE(%inhib)±SD; for Ki: read-out: Secondary screen Ki
T1 sequence (P08172 1-466): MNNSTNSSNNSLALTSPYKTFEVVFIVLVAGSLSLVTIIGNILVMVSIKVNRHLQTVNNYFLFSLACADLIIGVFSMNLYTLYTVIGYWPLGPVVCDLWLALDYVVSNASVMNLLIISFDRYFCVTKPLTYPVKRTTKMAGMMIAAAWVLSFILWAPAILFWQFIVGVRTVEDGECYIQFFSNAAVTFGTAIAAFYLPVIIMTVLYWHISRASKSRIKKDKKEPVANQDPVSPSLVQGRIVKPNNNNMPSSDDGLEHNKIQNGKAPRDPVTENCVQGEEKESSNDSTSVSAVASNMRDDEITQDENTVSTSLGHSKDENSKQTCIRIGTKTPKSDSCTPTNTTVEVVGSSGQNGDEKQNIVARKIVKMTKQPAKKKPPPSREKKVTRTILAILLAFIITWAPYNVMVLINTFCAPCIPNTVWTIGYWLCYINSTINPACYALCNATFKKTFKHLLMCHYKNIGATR
Description: as §1, §2, §3

[4] = target: T2, 5-HT1E (Homo sapiens, UniProt P28566); assay: PDSP off-target binding screen; conditions: for inhibition at 10 µM: read-out: Primary screen AVE(%inhib)±SD; for Ki: read-out: Secondary screen Ki
T2 construct: NIMH Psychoactive Drug Screening Program (UNC)
Description: as §1, §2, §3

[5] = target: 5-HT7A (Homo sapiens, UniProt P34969); assay: PDSP off-target binding screen; conditions: for inhibition at 10 µM: read-out: Primary screen AVE(%inhib)±SD; for Ki: read-out: Secondary screen Ki
Description: as §1, §2, §3

[6] = target: H2 (Homo sapiens, UniProt P25021); assay: PDSP off-target binding screen; conditions: for inhibition at 10 µM: read-out: Primary screen AVE(%inhib)±SD; for Ki: read-out: Secondary screen Ki
Description: as §1, §2, §3

[7] = target: T3, Alpha1D (Homo sapiens, UniProt P25100); assay: PDSP off-target binding screen; conditions: for inhibition at 10 µM: read-out: Primary screen AVE(%inhib)±SD; for Ki: read-out: Secondary screen Ki
T3 sequence (P25100 1-572): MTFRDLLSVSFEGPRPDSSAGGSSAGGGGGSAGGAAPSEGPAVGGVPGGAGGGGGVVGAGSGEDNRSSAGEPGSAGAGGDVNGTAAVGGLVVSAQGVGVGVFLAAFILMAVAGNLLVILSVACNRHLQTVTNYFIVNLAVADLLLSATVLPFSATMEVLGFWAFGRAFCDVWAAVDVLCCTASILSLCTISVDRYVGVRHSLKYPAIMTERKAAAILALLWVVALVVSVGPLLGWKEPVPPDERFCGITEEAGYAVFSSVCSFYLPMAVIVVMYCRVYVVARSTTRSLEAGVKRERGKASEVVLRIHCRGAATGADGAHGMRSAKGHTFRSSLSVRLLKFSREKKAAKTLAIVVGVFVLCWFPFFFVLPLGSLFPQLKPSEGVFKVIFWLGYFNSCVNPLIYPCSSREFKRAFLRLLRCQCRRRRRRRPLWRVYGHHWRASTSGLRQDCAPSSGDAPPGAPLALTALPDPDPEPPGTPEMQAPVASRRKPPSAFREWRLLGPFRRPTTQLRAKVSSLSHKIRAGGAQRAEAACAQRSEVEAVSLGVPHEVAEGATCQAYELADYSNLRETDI
Description: as §1, §2, §3

[8] = target: T4, 5-HT6 (Homo sapiens, UniProt P50406); assay: PDSP off-target binding screen; conditions: for inhibition at 10 µM: read-out: Primary screen AVE(%inhib)±SD; for Ki: read-out: Secondary screen Ki
T4 construct: NIMH Psychoactive Drug Screening Program (UNC)
Description: as §1, §2, §3

[9] = target: 5-HT2B (Homo sapiens, UniProt P41595); assay: PDSP off-target binding screen; conditions: for inhibition at 10 µM: read-out: Primary screen AVE(%inhib)±SD
[10] = tested on: 45 receptors and channels; assay: PDSP off-target screen (whole panel); format: binding, human
Description: as §1, §2, §3

[11] = tested on: L363 cells; assay: MTS cell viability assay, L363 cells; format: cell-based; conditions: 48 h treatment
[12] = Conversion of Allopole to Allopole-A in buffers ± GSH (LC-MS); format: physicochemical; conditions: room temperature, 1 h; for Compounds detected / Compounds detected, % of total / Compounds detected, pk area: 100 µM Allopole
Method: High-performance liquid chromatography (HPLC)/high-resolution mass spectrometry was used to determine the products derived from investigational drugs incubated under various conditions by measuring their exact masses. Thereafter, 20 μL aliquots of several drug preparations in either DMSO or aqueous reaction solutions were diluted 2:1 in ethanol, followed by centrifugation at 15,000 × g for 5 min. The supernatant was then injected on a Thermo Vanquish liquid chromatograph coupled to a Thermo Q Exactive Orbitrap mass spectrometer (Thermo Fisher Scientific). The conditions for the analysis are listed as follows.
The analytes were identified using the Dmass between the predicted and measured exact monoisotopic mass for the protonated molecular ions applied to the empirical formula algorithm in the Qual Browser application of the Xcalibur software (Themo Scientific). Selected ions from the base peak chromatogram were extracted for integration of peak areas. The relative amounts of each analyte to the sum total were calculated to estimate conversion of and prodrug under the specific conditions to breakdown products.
Table S2. Conversion of Allopole to Allopole-A under various buffer conditions, room
Buffers* Compounds detected
Allopole-A Allopole-A (-S) Allopole (-Cl) Allopole
* Buffer #1: 20 mM Tris (pH 8.0), 50 mM NaCl, 1 mM EDTA, 1% DMSO
Buffer #2: 1 x PBS (pH 7.4), 1 mM EDTA, 1% DMSO
Buffer #3: 20 mM HEPES (pH 7.0), 50 mM NaCl, 1 mM EDTA, 1% DMSO
Samples were prepared by incubating 100 µM of Allopole in the indicated buffer conditions in the
absence or presence of 5 mM GSH for 1 h at room temperature. Note that in the absence of GSH,

[13] = Buffer #1 (20 mM Tris pH 8.0), no GSH
[14] = Buffer #2 (1 x PBS pH 7.4), no GSH
[15] = Buffer #3 (20 mM HEPES pH 7.0), no GSH

T2 sequence (P28566 whole entry): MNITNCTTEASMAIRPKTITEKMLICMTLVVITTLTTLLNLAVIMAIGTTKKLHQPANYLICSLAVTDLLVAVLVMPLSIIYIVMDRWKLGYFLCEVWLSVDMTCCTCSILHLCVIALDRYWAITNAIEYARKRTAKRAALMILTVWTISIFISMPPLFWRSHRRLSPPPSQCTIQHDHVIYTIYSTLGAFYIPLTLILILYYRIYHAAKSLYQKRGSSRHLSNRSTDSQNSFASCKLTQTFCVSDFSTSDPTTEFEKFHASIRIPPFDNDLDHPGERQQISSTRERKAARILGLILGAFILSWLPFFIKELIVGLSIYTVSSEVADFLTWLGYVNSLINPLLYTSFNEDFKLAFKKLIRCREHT
Chain of 5-HT2A (P28223 whole entry): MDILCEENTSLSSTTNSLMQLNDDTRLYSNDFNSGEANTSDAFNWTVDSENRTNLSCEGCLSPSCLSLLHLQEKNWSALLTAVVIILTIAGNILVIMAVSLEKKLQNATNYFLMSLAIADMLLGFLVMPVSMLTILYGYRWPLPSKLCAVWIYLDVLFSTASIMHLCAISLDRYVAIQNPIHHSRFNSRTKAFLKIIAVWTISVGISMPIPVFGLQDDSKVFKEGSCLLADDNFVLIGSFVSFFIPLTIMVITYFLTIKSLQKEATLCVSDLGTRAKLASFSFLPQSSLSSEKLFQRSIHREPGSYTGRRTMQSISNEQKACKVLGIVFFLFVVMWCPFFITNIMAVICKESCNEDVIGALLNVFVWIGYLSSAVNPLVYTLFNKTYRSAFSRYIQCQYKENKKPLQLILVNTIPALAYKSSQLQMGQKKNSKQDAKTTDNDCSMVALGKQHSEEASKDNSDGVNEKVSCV
Chain of 5-HT2B (P41595 whole entry): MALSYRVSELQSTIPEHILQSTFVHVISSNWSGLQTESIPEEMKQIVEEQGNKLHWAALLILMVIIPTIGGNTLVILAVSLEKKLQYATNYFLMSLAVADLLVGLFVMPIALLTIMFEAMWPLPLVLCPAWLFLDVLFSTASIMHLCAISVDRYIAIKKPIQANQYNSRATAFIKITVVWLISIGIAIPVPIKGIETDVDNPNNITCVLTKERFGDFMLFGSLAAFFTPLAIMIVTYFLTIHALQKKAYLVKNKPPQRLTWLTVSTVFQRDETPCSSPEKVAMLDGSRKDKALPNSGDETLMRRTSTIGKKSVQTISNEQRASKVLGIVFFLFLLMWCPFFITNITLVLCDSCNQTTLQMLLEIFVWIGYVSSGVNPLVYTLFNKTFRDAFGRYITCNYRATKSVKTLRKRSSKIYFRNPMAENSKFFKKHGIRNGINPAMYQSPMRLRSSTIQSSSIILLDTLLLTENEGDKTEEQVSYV
T4 sequence (P50406 whole entry): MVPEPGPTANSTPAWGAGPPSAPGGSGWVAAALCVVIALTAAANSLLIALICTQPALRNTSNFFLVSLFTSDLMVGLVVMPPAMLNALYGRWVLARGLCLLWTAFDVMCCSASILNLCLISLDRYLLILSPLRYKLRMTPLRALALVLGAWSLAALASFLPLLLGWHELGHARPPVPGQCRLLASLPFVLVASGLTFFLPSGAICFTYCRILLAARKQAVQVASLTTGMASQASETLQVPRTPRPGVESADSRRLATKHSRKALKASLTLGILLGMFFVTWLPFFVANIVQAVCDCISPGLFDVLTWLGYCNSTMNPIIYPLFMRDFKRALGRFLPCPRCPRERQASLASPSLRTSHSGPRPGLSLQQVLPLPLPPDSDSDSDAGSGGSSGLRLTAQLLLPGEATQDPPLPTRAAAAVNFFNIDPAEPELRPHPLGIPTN
Chain of H2 (P25021 whole entry): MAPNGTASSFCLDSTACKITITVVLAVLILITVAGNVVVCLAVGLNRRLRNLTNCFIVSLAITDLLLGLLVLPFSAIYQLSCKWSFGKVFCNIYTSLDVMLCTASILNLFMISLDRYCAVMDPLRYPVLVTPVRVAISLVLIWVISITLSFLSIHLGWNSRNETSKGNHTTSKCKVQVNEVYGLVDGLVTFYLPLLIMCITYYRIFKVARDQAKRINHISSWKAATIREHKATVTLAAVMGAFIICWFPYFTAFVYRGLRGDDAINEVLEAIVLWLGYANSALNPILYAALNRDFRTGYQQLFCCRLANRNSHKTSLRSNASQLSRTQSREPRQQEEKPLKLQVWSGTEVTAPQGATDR
Chain of 5-HT7A (P34969 1-445 isoform P34969-2): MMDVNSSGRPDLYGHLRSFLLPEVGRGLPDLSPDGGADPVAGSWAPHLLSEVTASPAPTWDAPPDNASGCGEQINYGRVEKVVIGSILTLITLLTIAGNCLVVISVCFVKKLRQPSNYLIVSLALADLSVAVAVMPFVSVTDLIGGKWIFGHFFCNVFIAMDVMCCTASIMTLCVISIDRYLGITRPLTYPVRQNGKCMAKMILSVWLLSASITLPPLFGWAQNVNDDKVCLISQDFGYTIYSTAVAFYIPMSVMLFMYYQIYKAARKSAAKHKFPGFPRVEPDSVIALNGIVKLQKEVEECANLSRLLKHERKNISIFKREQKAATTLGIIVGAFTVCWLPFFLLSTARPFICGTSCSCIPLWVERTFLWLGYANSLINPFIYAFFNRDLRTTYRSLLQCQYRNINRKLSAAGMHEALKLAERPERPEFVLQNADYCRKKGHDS
Chain of Beta1 (P08588 whole entry): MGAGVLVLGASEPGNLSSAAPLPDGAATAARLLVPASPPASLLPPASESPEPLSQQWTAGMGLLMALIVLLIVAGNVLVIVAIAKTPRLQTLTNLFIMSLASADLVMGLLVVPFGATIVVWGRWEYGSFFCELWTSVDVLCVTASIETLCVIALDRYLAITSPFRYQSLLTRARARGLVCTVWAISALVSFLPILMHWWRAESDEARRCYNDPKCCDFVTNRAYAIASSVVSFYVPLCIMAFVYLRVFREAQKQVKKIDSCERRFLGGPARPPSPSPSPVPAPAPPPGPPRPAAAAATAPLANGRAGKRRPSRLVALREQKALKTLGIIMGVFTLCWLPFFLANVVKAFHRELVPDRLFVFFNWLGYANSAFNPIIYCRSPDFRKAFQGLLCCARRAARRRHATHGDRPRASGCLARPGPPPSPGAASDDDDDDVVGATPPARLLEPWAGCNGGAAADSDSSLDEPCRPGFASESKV

Row | SMILES | Ki [1] | inhibition at 10 µM [1] | inhibition at 10 µM [2] | Ki [2] | inhibition at 10 µM [3] | Ki [3] | inhibition at 10 µM [4] | Ki [4] | inhibition at 10 µM [5] | Ki [5] | inhibition at 10 µM [6] | Ki [6] | inhibition at 10 µM [7] | Ki [7] | inhibition at 10 µM [8] | Ki [8] | Ki [9] | inhibition at 10 µM [9] | Interactions (Ki, µM), summary of PDSP screen (in words) [10] | Compounds detected [12, 13] | other results
1 | Cn1cnc([N+](=O)[O-])c1Sc1nnc2n(CC3CC3)c(=O)c3sc(Cl)cc3n12 [Allopole] | 9.2 µM | 52.4 ± 11.8% | 67.3 ± 49.1% | > 10 µM | 9.3 ± 19.3% | > 10 µM | 22.2 ± 10.5% | > 10 µM | 14.9 ± 9.9% | > 10 µM | -16.4 ± 21.5% | > 10 µM | -15.1 ± 19.8% | > 10 µM | 21.9 ± 15.6% | > 10 µM | > 10 µM | -0.5 ± 5% | only two weak µM interactions | 97.9 µmol/L | GI50 ([11]; Homo sapiens, L-363, 48 h, read-out: Cell efficacy (GI50) Mean ± SD): 4.1 µM; Compounds detected, % of total [12, 13]: 97.9%; Compounds detected, pk area [12, 13]: 7.45E+08; Compounds detected ([12]; Buffer #1 + 5 mM GSH): 0.1 µmol/L; Compounds detected, % of total ([12]; Buffer #1 + 5 mM GSH): 0.1%; Compounds detected, pk area ([12]; Buffer #1 + 5 mM GSH): 8.76E+05; Compounds detected [12, 14]: 97.6 µmol/L; Compounds detected, % of total [12, 14]: 97.6%; Compounds detected, pk area [12, 14]: 6.28E+08; Compounds detected ([12]; Buffer #2 + 5 mM GSH): 0.0 µmol/L; Compounds detected, % of total ([12]; Buffer #2 + 5 mM GSH): 0.0%; Compounds detected, pk area ([12]; Buffer #2 + 5 mM GSH): 2.41E+03; Compounds detected [12, 15]: 93.1 µmol/L; Compounds detected, % of total [12, 15]: 93.1%; Compounds detected, pk area [12, 15]: 7.80E+07; Compounds detected ([12]; Buffer #3 + 5 mM GSH): 0.0 µmol/L; Compounds detected, % of total ([12]; Buffer #3 + 5 mM GSH): 0.0%; Compounds detected, pk area ([12]; Buffer #3 + 5 mM GSH): 9.35E+04; Unmasking of the prodrug by GSH (in words) ([12]; 5 mM GSH): completely unmask; Stability in buffer (in words) ([12]; absence of GSH): remains stable
2 | O=c1c2sc(Cl)cc2n2c(=S)[nH]nc2n1CC1CC1 [Allopole-A] | > 10 µM | 37 ± 10.4% | -6.2 ± 19.4% | > 10 µM | 21.1 ± 19.7% | > 10 µM | 31.3 ± 7.6% | > 10 µM | -88.1 ± 20.8% | > 10 µM | -27.4 ± 17.1% | > 10 µM | -9.9 ± 23.4% | > 10 µM | -5 ± 11.7% | > 10 µM | > 10 µM | -17.7 ± 11.2% | None observed; also recorded: no interactions | 1.3 µmol/L | Cell efficacy (GI50) Mean ± SD [11]: failed to induce any significant antiproliferation effect; Cell efficacy (GI50) Mean ± SD ([11]; listed as 19): N. S.; Compounds detected, % of total [12, 13]: 1.3%; Compounds detected, pk area [12, 13]: 9.61E+06; Compounds detected ([12]; Buffer #1 + 5 mM GSH): 95.4 µmol/L; Compounds detected, % of total ([12]; Buffer #1 + 5 mM GSH): 95.4%; Compounds detected, pk area ([12]; Buffer #1 + 5 mM GSH): 1.38E+09; Compounds detected [12, 14]: 0.8 µmol/L; Compounds detected, % of total [12, 14]: 0.8%; Compounds detected, pk area [12, 14]: 4.90E+06; Compounds detected ([12]; Buffer #2 + 5 mM GSH): 77.9 µmol/L; Compounds detected, % of total ([12]; Buffer #2 + 5 mM GSH): 77.9%; Compounds detected, pk area ([12]; Buffer #2 + 5 mM GSH): 5.81E+08; Compounds detected [12, 15]: 1.9 µmol/L; Compounds detected, % of total [12, 15]: 1.9%; Compounds detected, pk area [12, 15]: 1.56E+06; Compounds detected ([12]; Buffer #3 + 5 mM GSH): 66.9 µmol/L; Compounds detected, % of total ([12]; Buffer #3 + 5 mM GSH): 66.9%; Compounds detected, pk area ([12]; Buffer #3 + 5 mM GSH): 1.89E+08
